Source: US20160291027A1, “METHODS FOR […] ABILITY OF A Z[…] COMPOUND TO TREAT CANCER” (Eisai R&D Management Co., Ltd., priority 2007, published 2016)

Tests used:
[1] = system: LOX human melanoma xenografts; test: Subcutaneous LOX melanoma xenograft model; format: in vivo, mice
Procedure: The purpose of this study was to investigate anticancer activity of Compound 106 in a LOX human melanoma xenograft model. LOX human melanoma cells, which carry a BRAF (V600E) mutation, were obtained from the DCTD Tumor Repository (Frederick, Md.). Cells were grown in monolayer cultures in T225 flask with RPMI-1640 growth media at 37° C. in a 5% CO2 humidified incubator. Cells were further cultivated in T225 flasks for the in vivo study. On the day of subcutaneous (s.c.) injections of the cells, growth medium was removed, flasks were washed with PBS, and cells were collected with trypsinization. Cells were washed and centrifuged for 3 minutes, and then resuspended in ice-cold PBS.
Female athymic NU/NU mice were inoculated s.c. with 1×10^6 LOX human melanoma cells. Those animals that developed tumors of approximately 150 mm^3 were selected and randomized to five groups. The study consisted of a vehicle-treated group and four drug-treated groups of 8 mice per group for a total of 40 mice on the first day of treatment. All treatments were initiated on day 6. Compound 106 was administered intravenously (i.v.) on a Q4D×3 (days 6, 10, and 14) dosing schedule at dosages of 5, 10, 20 and 40 mg/kg with a volume of injection of 0.1 mL per 10 g body weight. The control group was treated with vehicle (20% Captisol in water) alone.
The s.c. tumor volumes were measured and animals were weighed twice weekly starting with the first day of treatment. Tumor volume and relative body weight (RBW) were determined as described in Example 12.
The study was terminated fifty-nine days after cancer cell transplantation. For each Compound 106 treatment group, measurements were also terminated when mean tumor volume reached two doublings (4-fold tumor volume) from the first day of treatment.
Animals were treated intravenously on days 6, 10, and 14 (Q4D×3; indicated by arrows in FIG. 11). Tumor measurements on tumor bearing mice in all surviving groups were stopped on day 37. Then, tumor measurements were continued for tumor-free mice in the 10 mg/kg (1/8), 20 mg/kg (5/8), and 40 mg/kg (7/8) Compound 106 treatment groups. The study was terminated on day 59. Asterisks (*) indicate P<0.05 vs. control group.

[2] = system: IL-6 secretion by LOX human melanoma cells; test: IL-6 secretion by LOX melanoma cells (ELISA); format: cell-based; settings: 24 hours
Procedure: Compound 106 (5.0 mg) was weighed and dissolved in 100% anhydrous DMSO (dimethyl sulfoxide, Sigma-Aldrich®, St. Louis, Mo.) to produce a 10 mmol/L stock solution of 3.89 mg/mL. Aliquots of the 10 mmol/L stock solution were stored at −80° C. Then, on each day of an experiment, an aliquot of the stock solution was thawed and diluted 1:10 by adding RPMI-1640 culture medium to obtain a 1 mmol/L solution. Four serial 1:10 dilutions were made from 1 mmol/L working solution by adding 10% DMSO in RPMI-1640 culture medium to obtain 4 additional working solutions. Each of these working stock solutions was further diluted with culture media to obtain diluted working solutions ranging from 1 nmol/L to 10,000 nmol/L. Five mL of each of these diluted working solutions was added to each dish.
LOX human melanoma cells were originally obtained from the DCTD Tumor Repository (Frederick, Md.). The cells were grown in monolayer cultures in RPMI-1640 growth media containing 10% fetal bovine serum (FBS) at 37° C. in a 5% CO2 humidified incubator.
LOX human melanoma cells were plated at 1×10^6 cells into 100 mm dishes. After 48 hours, cells were washed three times with phosphate buffered saline (PBS) and were cultured with RPMI-1640 medium containing 0.1% FBS for another 24 hours. After removing the cell culture medium, fresh RPMI-1640 medium containing Compound 106 (1, 10, 100, 1000, or 10,000 nmol/L) was added to each culture dish and incubated for 24 hours (see Table 5). The control received 0.1% DMSO in RPMI-1640 culture medium alone to measure spontaneous secretion of IL-6 and IL-8. Three separate experiments were performed in duplicate to calculate the mean±SEM.
After a 24 hour incubation with Compound 106 or 0.1% DMSO, 5 mL of cell culture supernatant was collected. Any particulate material was removed by centrifugation. All samples were stored in the −80° C. freezer until analysis. Human IL-6 or IL-8 was determined using an ELISA kit (Human IL-8 ELISA Set, Catalog No. 555244, BD Biosciences, San Diego, Calif. and Human IL-6 ELISA Set, Catalog No. 555220, BD Biosciences, San Diego, Calif.) with the assay procedure provided by the kits. Absorbance was read on a VERSAMAX™ (Molecular Devices, now part of MDS Analytical Technologies, Sunnyvale Calif.).
After removing the cell culture supernatant, 1.0 mL of trypsin was added to the cells for 3 minutes, and then 4 mL of media containing 10% FBS was added for cell counting. Cells were counted using a hematocytometer (Bright Line Counting Chamber, Hausser Scientific, Horsham, Pa.) with a depth of 0.1 mm. The total number of cells was calculated as follows:
Total number of cells in 5 mL=C×10^4/mL×5 mL(C: actual cell count in 1 mm^2)
The level of IL-6 or IL-8 was determined as ng/1×10^6 cells. Inhibition of IL-6 or IL-8 secretion by Compound 106 was expressed as percent of control using the formula below:
Percent of control=(value of treatment−mean value of blank)/(value of control−mean value of blank)×100
The software, Graphpad Prism® (ver. 4, San Diego, Calif.) was used for calculation of mean IC50 values.

Structure (SMILES): CCNc1cc(O)c2c(c1)/C=C/C[C@H](O)[C@H](O)C(=O)/C=C\[C@@H](C)[C@H](C)OC2=O [Compound 106]
- Tumor-free animals at the end of the study on day 59 ([1]; 10 mg/kg i.v. Q4D×3): 1/8 and one
- Tumor-free animals at the end of the study on day 59 ([1]; 20 mg/kg i.v. Q4D×3): 5/8 and five
- Tumor-free animals at the end of the study on day 59 ([1]; 40 mg/kg i.v. Q4D×3): 7/8 and seven
- Anticancer activity (tumor volume vs. control group) ([1]; 10, 20, and 40 mg/kg i.v. Q4D×3): statistically significant anticancer activity
- IL-6 (ng/million cells) Mean ([2]; 1 nmol/L): 9.9 ng/million cells
- IL-6 (pg/million cells) Experiment 1 ([2]; 1 nmol/L): 5890 pg/million cells
- IL-6 (pg/million cells) Experiment 2 ([2]; 1 nmol/L): 13741 pg/million cells
- IL-6 (pg/million cells) Experiment 3 ([2]; 1 nmol/L): 10140 pg/million cells
- Protein level of IL-6, Percent (%) of control Experiment 1 ([2]; 1 nmol/L): 46.1%
- Protein level of IL-6, Percent (%) of control Experiment 2 ([2]; 1 nmol/L): 53.6%
- Protein level of IL-6, Percent (%) of control Experiment 3 ([2]; 1 nmol/L): 115.0%
- IL-6 (ng/million cells) Mean ([2]; 10 nmol/L): 8.7 ng/million cells
- IL-6 (pg/million cells) Experiment 1 ([2]; 10 nmol/L): 3253 pg/million cells
- IL-6 (pg/million cells) Experiment 2 ([2]; 10 nmol/L): 12105 pg/million cells
- IL-6 (pg/million cells) Experiment 3 ([2]; 10 nmol/L): 10745 pg/million cells
- Protein level of IL-6, Percent (%) of control Experiment 1 ([2]; 10 nmol/L): 21.5%
- Protein level of IL-6, Percent (%) of control Experiment 2 ([2]; 10 nmol/L): 47.1%
- Protein level of IL-6, Percent (%) of control Experiment 3 ([2]; 10 nmol/L): 121.3%
- IL-6 (ng/million cells) Mean ([2]; 100 nmol/L): 0.5 ng/million cells
- IL-6 (pg/million cells) Experiment 1 ([2]; 100 nmol/L): 347 pg/million cells
- IL-6 (pg/million cells) Experiment 2 ([2]; 100 nmol/L): 643 pg/million cells
- IL-6 (pg/million cells) Experiment 3 ([2]; 100 nmol/L): 485 pg/million cells
- Protein level of IL-6, Percent (%) of control Experiment 1 ([2]; 100 nmol/L): 2.9%
- Protein level of IL-6, Percent (%) of control Experiment 2 ([2]; 100 nmol/L): 2.5%
- Protein level of IL-6, Percent (%) of control Experiment 3 ([2]; 100 nmol/L): 5.5%
- IL-6 (ng/million cells) Mean ([2]; 1,000 nmol/L): 0.6 ng/million cells
- IL-6 (pg/million cells) Experiment 1 ([2]; 1,000 nmol/L): 547 pg/million cells
- IL-6 (pg/million cells) Experiment 2 ([2]; 1,000 nmol/L): 986 pg/million cells
- IL-6 (pg/million cells) Experiment 3 ([2]; 1,000 nmol/L): 257 pg/million cells
- Protein level of IL-6, Percent (%) of control Experiment 1 ([2]; 1,000 nmol/L): 4.6%
- Protein level of IL-6, Percent (%) of control Experiment 2 ([2]; 1,000 nmol/L): 3.8%
- Protein level of IL-6, Percent (%) of control Experiment 3 ([2]; 1,000 nmol/L): 2.9%
- IL-6 (ng/million cells) Mean ([2]; 10,000 nmol/L): 0.2 ng/million cells
- IL-6 (pg/million cells) Experiment 1 ([2]; 10,000 nmol/L): 165 pg/million cells
- IL-6 (pg/million cells) Experiment 2 ([2]; 10,000 nmol/L): 337 pg/million cells
- IL-6 (pg/million cells) Experiment 3 ([2]; 10,000 nmol/L): 132 pg/million cells
- Protein level of IL-6, Percent (%) of control Experiment 1 ([2]; 10,000 nmol/L): 1.3%
- Protein level of IL-6, Percent (%) of control Experiment 2 ([2]; 10,000 nmol/L): 1.3%
- Protein level of IL-6, Percent (%) of control Experiment 3 ([2]; 10,000 nmol/L): 1.6%
- activity at 0.001 µM ([2]; Homo sapiens, LOX, 1 nmol/L, read-out: Protein level of IL-6, Mean % of control): 72.2%
- activity at 0.01 µM ([2]; Homo sapiens, LOX, 10 nmol/L, read-out: Protein level of IL-6, Mean % of control): 65%
- activity at 0.1 µM ([2]; Homo sapiens, LOX, 100 nmol/L, read-out: Protein level of IL-6, Mean % of control): 3.6%
- activity at 1 µM ([2]; Homo sapiens, LOX, 1,000 nmol/L, read-out: Protein level of IL-6, Mean % of control): 3.8%
- activity at 10 µM ([2]; Homo sapiens, LOX, 10,000 nmol/L, read-out: Protein level of IL-6, Mean % of control): 1.4%
- IC50 ([2]; Homo sapiens, LOX melanoma cell line, read-out: mean calculated IC50, IL-6 protein level): 21.8 nM
